Each compound was assayed against cruzain (Trypanosoma cruzi, UniProt P25779) (assay: biochemical). Settings: 0’ (pre-incubation time); sheet "Screening results".
In short: (§1)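 Recombinant enzymes assayed by Z-Phe-Arg-AMC cleavage at 25 °C, fluorescence 340/440 nm over 5–7 min, with 10 min or no enzyme–compound preincubation.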
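Throughout, for Cruzain 0’ Inhibition: at 5 µM compound concentration.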
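Throughout, for Cruzain 10’ Inhibition: at 5 µM compound concentration.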
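Throughout, for TbrCatL 0’ Inhibition: at 5 µM compound concentration.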
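Throughout, for TbrCatL 10’ Inhibition: at 5 µM compound concentration.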
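Throughout, for TbrCatL Inhibition 0’: at 5 µM compound concentration.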
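Throughout, for TbrCatL Inhibition 10’: at 5 µM compound concentration.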

Chain of cruzain (P25779 123-337 limits assumed): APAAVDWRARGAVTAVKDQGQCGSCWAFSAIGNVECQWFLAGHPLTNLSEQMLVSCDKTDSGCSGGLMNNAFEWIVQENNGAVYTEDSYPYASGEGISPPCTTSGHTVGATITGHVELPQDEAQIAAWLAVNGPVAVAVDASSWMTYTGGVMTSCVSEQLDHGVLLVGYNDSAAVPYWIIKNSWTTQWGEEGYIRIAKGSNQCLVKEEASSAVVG

Compound	Cruzain 0’ Inhibition [%]
C[C@H](c1ccc2c(c1)CCCC2)N(C)c1ncc2c(N)nc(N)nc2n1 [MMV690103]	-2.7
CCc1ccc(C(NCc2nc(N)nc(N(C)C)n2)C(C)C)cc1 (centres unmarked) [MMV1019989]	-10
CNC(=O)CNc1nc(-c2ccccn2)nc2scc(-c3ccccc3)c12 [MMV1029203]	-6
CCCn1c(NC(=O)c2ccc3ccccc3n2)nc2ccccc21 [MMV1030799]	-3.4
CCNC(=O)C(C)Nc1nc(-c2cccnc2)nc2sc(C)c(C)c12 (centres unmarked) [MMV1037162]	-0.8
Cc1ccc(-c2nc(CN(Cc3ccccn3)C(C)C)cs2)o1 [MMV1088520]	-17
Cc1cc(OCC(=O)Nc2ccc(C(C)C)cc2)n(C)c(=O)c1C#N [MMV1198433]	-4.6

Same assay, conditions: 10’ (pre-incubation time); sheet "Screening results"

Compound	Cruzain 10’ Inhibition [%]
C[C@H](c1ccc2c(c1)CCCC2)N(C)c1ncc2c(N)nc(N)nc2n1 [MMV690103]	16
CCc1ccc(C(NCc2nc(N)nc(N(C)C)n2)C(C)C)cc1 (centres unmarked) [MMV1019989]	-7
CNC(=O)CNc1nc(-c2ccccn2)nc2scc(-c3ccccc3)c12 [MMV1029203]	28
CCCn1c(NC(=O)c2ccc3ccccc3n2)nc2ccccc21 [MMV1030799]	2.4
CCNC(=O)C(C)Nc1nc(-c2cccnc2)nc2sc(C)c(C)c12 (centres unmarked) [MMV1037162]	1.7
Cc1ccc(-c2nc(CN(Cc3ccccn3)C(C)C)cs2)o1 [MMV1088520]	-15
Cc1cc(OCC(=O)Nc2ccc(C(C)C)cc2)n(C)c(=O)c1C#N [MMV1198433]	-6

Same assay, conditions: read-out: Inhibition at 5 µM (Mean ± SEM %) Cruzain 0′, 5 µM, no pre-incubation, initial screening

Compound	inhibition at 5 µM [%]
COc1ccc(C2=NN(C3CCCCCC3)C(=O)[C@H]3CC=CC[C@@H]23)cc1OCCCCOc1ccc(-c2nn[nH]n2)cc1 [MMV690027]	50 ± 5

Same assay, conditions: read-out: Inhibition at 5 µM (Mean ± SEM %) Cruzain 10′ inc, 5 µM, 10′ pre-incubation, initial screening

Compound	inhibition at 5 µM [%]
COc1ccc(C2=NN(C3CCCCCC3)C(=O)[C@H]3CC=CC[C@@H]23)cc1OCCCCOc1ccc(-c2nn[nH]n2)cc1 [MMV690027]	33 ± 2

Same assay, conditions: read-out: Inhibition of cruzain or TbrCatL (either enzyme) in the initial screening, 5 µM; either cruzain or TbrCatL, with or without pre-incubation

Compound	inhibition at 5 µM [%]
COc1ccc(C2=NN(C3CCCCCC3)C(=O)[C@H]3CC=CC[C@@H]23)cc1OCCCCOc1ccc(-c2nn[nH]n2)cc1 [MMV690027]	≥ 40

What follows are compounds tested against T1, TbrCatL (Trypanosoma brucei rhodesiense, UniProt Q95PM0) (assay: TbrCatL enzymatic inhibition assay (cleavage of fluorogenic substrate Z-FR-AMC)). Settings: 0’ (no pre-incubation); sheet Screening results.
T1 construct: Conor Caffrey (University of California San Diego)
T1 sequence (Q95PM0 entry or part of it): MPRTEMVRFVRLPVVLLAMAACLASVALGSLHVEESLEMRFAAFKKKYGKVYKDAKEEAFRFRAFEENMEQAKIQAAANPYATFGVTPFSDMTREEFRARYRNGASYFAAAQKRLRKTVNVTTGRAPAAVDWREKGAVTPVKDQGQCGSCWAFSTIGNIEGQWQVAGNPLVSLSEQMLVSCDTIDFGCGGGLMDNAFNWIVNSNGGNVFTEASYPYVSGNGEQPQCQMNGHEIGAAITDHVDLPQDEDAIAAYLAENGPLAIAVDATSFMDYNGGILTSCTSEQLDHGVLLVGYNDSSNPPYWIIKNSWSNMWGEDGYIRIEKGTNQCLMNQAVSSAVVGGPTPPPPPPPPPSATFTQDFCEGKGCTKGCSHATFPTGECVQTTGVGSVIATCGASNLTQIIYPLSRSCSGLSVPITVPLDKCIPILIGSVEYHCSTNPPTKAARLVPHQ
Format: biochemical
In short: as §1

Compound	TbrCatL Inhibition 0’ [%]
COc1ccc(C2=NN(C3CCCCCC3)C(=O)[C@H]3CC=CC[C@@H]23)cc1OCCCCOc1ccc(-c2nn[nH]n2)cc1 [MMV690027]	6.4

Same assay, conditions: 0’ (pre-incubation time); sheet "Screening results"

Compound	TbrCatL 0’ Inhibition [%]
C[C@H](c1ccc2c(c1)CCCC2)N(C)c1ncc2c(N)nc(N)nc2n1 [MMV690103]	-18
CCc1ccc(C(NCc2nc(N)nc(N(C)C)n2)C(C)C)cc1 (centres unmarked) [MMV1019989]	-6
CNC(=O)CNc1nc(-c2ccccn2)nc2scc(-c3ccccc3)c12 [MMV1029203]	-10
CCCn1c(NC(=O)c2ccc3ccccc3n2)nc2ccccc21 [MMV1030799]	-8
CCNC(=O)C(C)Nc1nc(-c2cccnc2)nc2sc(C)c(C)c12 (centres unmarked) [MMV1037162]	6
Cc1ccc(-c2nc(CN(Cc3ccccn3)C(C)C)cs2)o1 [MMV1088520]	-6
Cc1cc(OCC(=O)Nc2ccc(C(C)C)cc2)n(C)c(=O)c1C#N [MMV1198433]	-5

Same assay, conditions: 10’ (pre-incubation time); sheet "Screening results"

Compound	TbrCatL 10’ Inhibition [%]
C[C@H](c1ccc2c(c1)CCCC2)N(C)c1ncc2c(N)nc(N)nc2n1 [MMV690103]	-22
CCc1ccc(C(NCc2nc(N)nc(N(C)C)n2)C(C)C)cc1 (centres unmarked) [MMV1019989]	-5
CNC(=O)CNc1nc(-c2ccccn2)nc2scc(-c3ccccc3)c12 [MMV1029203]	-7
CCCn1c(NC(=O)c2ccc3ccccc3n2)nc2ccccc21 [MMV1030799]	-11
CCNC(=O)C(C)Nc1nc(-c2cccnc2)nc2sc(C)c(C)c12 (centres unmarked) [MMV1037162]	-0.5
Cc1ccc(-c2nc(CN(Cc3ccccn3)C(C)C)cs2)o1 [MMV1088520]	-24
Cc1cc(OCC(=O)Nc2ccc(C(C)C)cc2)n(C)c(=O)c1C#N [MMV1198433]	-4.5

Same assay, conditions: 10’ (pre-incubation); sheet Screening results

Compound	TbrCatL Inhibition 10’ [%]
COc1ccc(C2=NN(C3CCCCCC3)C(=O)[C@H]3CC=CC[C@@H]23)cc1OCCCCOc1ccc(-c2nn[nH]n2)cc1 [MMV690027]	-1.8

Same assay, conditions: read-out: Inhibition at 5 µM (Mean ± SEM %) TbrCatL 0′

Compound	inhibition at 5 µM [%]
COc1ccc(C2=NN(C3CCCCCC3)C(=O)[C@H]3CC=CC[C@@H]23)cc1OCCCCOc1ccc(-c2nn[nH]n2)cc1 [MMV690027]	6 ± 2

Same assay, conditions: read-out: Inhibition at 5 µM (Mean ± SEM %) TbrCatL 10′ inc

Compound	inhibition at 5 µM [%]
COc1ccc(C2=NN(C3CCCCCC3)C(=O)[C@H]3CC=CC[C@@H]23)cc1OCCCCOc1ccc(-c2nn[nH]n2)cc1 [MMV690027]	0

Reference: article PMC9967275, “Screening the Pathogen Box to Discover and Characterize New Cruzain and TbrCatL Inhibitors” (Pathogens, 2023)
